From ChEMBL document CHEMBL2396590, “Inhibition of HIV-1 integrase dimerization and activity with crosslinked interfacial peptides” (Bioorg Med Chem, 2013)
Active and inactive are the calls of the source. The calls are words filed in the database; no cut-off is given here. Starred links: 1 amine or outer side, 2 acyl side, 3 side chain; linkers in the order of their positions; H or OH if unused. Non-standard residues stand in square brackets, D forms with d. Residues, ends and D or L forms follow the SMILES beside them. X2 = O=C(C1CCCC(CN[*:1])C1)[*:2]; X3 = O=C(CC1CCN([*:1])CC1)[*:2]; X4 = O=C(CCC(=O)[*:2])CN[*:1]; Ahx = NCCCCCC(=O)O

Assays:
[1] = system: Human immunodeficiency virus type 1 integrase (Human immunodeficiency virus 1), Q7ZJM1 [F185K,C280S]; test: Inhibition of HIV1 integrase F185K/C280S double mutant dimerization expressed in Escherichia coli BL21 (DE3) at 100 fold excess compound concentration after 1 hr by PAGE analysis
[2] = system: Human immunodeficiency virus type 1 integrase (Human immunodeficiency virus 1), Q7ZJM1 [F185K,C280S]; test: Inhibition of HIV1 integrase F185K/C280S double mutant dimerization expressed in Escherichia coli BL21 (DE3) at 110 uM after 1 hr by PAGE analysis
[3] = target: Human immunodeficiency virus type 1 integrase (Human immunodeficiency virus 1, UniProt Q7ZJM1, C280S/F185K); test: Inhibition of HIV1 3'-processing activity of integrase F185K/C280S double mutant expressed in Escherichia coli BL21 (DE3)

Compound: CC[C@H](C)[C@H](NC(=O)[C@H](CC(=O)O)NC(=O)[C@@H](NC(=O)[C@H](C)NC(=O)[C@@H](NC(=O)[C@@H](NC(=O)[C@H](CC(=O)O)NC(=O)[C@@H](NC(=O)[C@@H](NC(=O)[C@H](CCCNC(=N)N)NC(=O)[C@H](CCC(=O)O)NC(=O)CNC(=O)[C@H](C)NC(=O)CCCCCNC(=O)[C@H](CCCNC(=N)N)NC(=O)[C@H](CCCCN)NC(=O)[C@H](Cc1ccccc1)NC(=O)[C@H](CC(N)=O)NC(=O)[C@H](Cc1cnc[nH]1)NC(=O)[C@@H](NC(=O)[C@H](Cc1ccccc1)NC(=O)[C@@H](NC(=O)[C@H](C)NC(=O)[C@H](CCSC)NC(=O)[C@H](CCC(N)=O)NC(=O)[C@@H](NC(=O)[C@H](C)NC(=O)[C@@H](NC(=O)[C@H](CCCCN)NC(=O)[C@H](CC(C)C)NC(=O)[C@@H](N)Cc1cnc[nH]1)[C@@H](C)O)C(C)C)C(C)C)[C@@H](C)CC)[C@@H](C)CC)C(C)C)[C@@H](C)CC)[C@@H](C)CC)[C@@H](C)O)C(=O)N[C@@H](CCC(N)=O)C(N)=O (H-HLKTAVQMAVFIHNFKR[Ahx]AGERIVDIIATDIQ-NH2)
- inhibition [1]: inactive
- inhibition [2]: inactive
- IC50 [3]: 1.5 µM

Compound: CC[C@H](C)[C@H](NC(=O)[C@H](CC(=O)O)NC(=O)[C@@H](NC(=O)[C@H](C)NC(=O)[C@@H](NC(=O)[C@@H](NC(=O)[C@H](CC(=O)O)NC(=O)[C@@H](NC(=O)[C@@H](NC(=O)[C@H](CCCNC(=N)N)NC(=O)[C@H](CCC(=O)O)NC(=O)CNC(=O)[C@H](C)NC(=O)C1CCCC(CNC(=O)[C@H](CCCNC(=N)N)NC(=O)[C@H](CCCCN)NC(=O)[C@H](Cc2ccccc2)NC(=O)[C@H](CC(N)=O)NC(=O)[C@H](Cc2cnc[nH]2)NC(=O)[C@@H](NC(=O)[C@H](Cc2ccccc2)NC(=O)[C@@H](NC(=O)[C@H](C)NC(=O)[C@H](CCSC)NC(=O)[C@H](CCC(N)=O)NC(=O)[C@@H](NC(=O)[C@H](C)NC(=O)[C@@H](NC(=O)[C@H](CCCCN)NC(=O)[C@H](CC(C)C)NC(=O)[C@@H](N)Cc2cnc[nH]2)[C@@H](C)O)C(C)C)C(C)C)[C@@H](C)CC)C1)[C@@H](C)CC)C(C)C)[C@@H](C)CC)[C@@H](C)CC)[C@@H](C)O)C(=O)N[C@@H](CCC(N)=O)C(N)=O (stereo partly specified) (H-HLKTAVQMAVFIHNFKR[X2]AGERIVDIIATDIQ-NH2)
- inhibition [2]: Active
- IC50 [3]: 1 µM

Compound: CC[C@H](C)[C@H](NC(=O)[C@H](CC(=O)O)NC(=O)[C@@H](NC(=O)[C@H](C)NC(=O)[C@@H](NC(=O)[C@@H](NC(=O)[C@H](CC(=O)O)NC(=O)[C@@H](NC(=O)[C@@H](NC(=O)[C@H](CCCNC(=N)N)NC(=O)[C@H](CCC(=O)O)NC(=O)CNC(=O)[C@H](C)NC(=O)CC1CCN(C(=O)[C@H](CCCNC(=N)N)NC(=O)[C@H](CCCCN)NC(=O)[C@H](Cc2ccccc2)NC(=O)[C@H](CC(N)=O)NC(=O)[C@H](Cc2cnc[nH]2)NC(=O)[C@@H](NC(=O)[C@H](Cc2ccccc2)NC(=O)[C@@H](NC(=O)[C@H](C)NC(=O)[C@H](CCSC)NC(=O)[C@H](CCC(N)=O)NC(=O)[C@@H](NC(=O)[C@H](C)NC(=O)[C@@H](NC(=O)[C@H](CCCCN)NC(=O)[C@H](CC(C)C)NC(=O)[C@@H](N)Cc2cnc[nH]2)[C@@H](C)O)C(C)C)C(C)C)[C@@H](C)CC)CC1)[C@@H](C)CC)C(C)C)[C@@H](C)CC)[C@@H](C)CC)[C@@H](C)O)C(=O)N[C@@H](CCC(N)=O)C(N)=O (H-HLKTAVQMAVFIHNFKR[X3]AGERIVDIIATDIQ-NH2)
- inhibition [2]: Active
- IC50 [3]: 0.57 µM

Compound: CC[C@H](C)[C@H](NC(=O)[C@H](CC(=O)O)NC(=O)[C@@H](NC(=O)[C@H](C)NC(=O)[C@@H](NC(=O)[C@@H](NC(=O)[C@H](CC(=O)O)NC(=O)[C@@H](NC(=O)[C@@H](NC(=O)[C@H](CCCNC(=N)N)NC(=O)[C@H](CCC(=O)O)NC(=O)CNC(=O)[C@H](C)NC(=O)CCC(=O)CNC(=O)[C@H](CCCNC(=N)N)NC(=O)[C@H](CCCCN)NC(=O)[C@H](Cc1ccccc1)NC(=O)[C@H](CC(N)=O)NC(=O)[C@H](Cc1cnc[nH]1)NC(=O)[C@@H](NC(=O)[C@H](Cc1ccccc1)NC(=O)[C@@H](NC(=O)[C@H](C)NC(=O)[C@H](CCSC)NC(=O)[C@H](CCC(N)=O)NC(=O)[C@@H](NC(=O)[C@H](C)NC(=O)[C@@H](NC(=O)[C@H](CCCCN)NC(=O)[C@H](CC(C)C)NC(=O)[C@@H](N)Cc1cnc[nH]1)[C@@H](C)O)C(C)C)C(C)C)[C@@H](C)CC)[C@@H](C)CC)C(C)C)[C@@H](C)CC)[C@@H](C)CC)[C@@H](C)O)C(=O)N[C@@H](CCC(N)=O)C(N)=O (H-HLKTAVQMAVFIHNFKR[X4]AGERIVDIIATDIQ-NH2)
- inhibition [2]: Active
- IC50 [3]: 0.43 µM

Compound: H-HLKTAVQMAVFIHNFKRKGGIGGYSAGERIVDIIATDIQ-NH2
- inhibition [2]: Active
- IC50 [3]: 1.7 µM
